The test system of the data set is CCRIS mutagenicity, Ames/micronucleus/aberration tests. Nature of the data set: CCRIS mutagenicity studies.
Where [1] appears, read: Test System: AMES SALMONELLA TYPHIMURIUM, Strain/Indicator: TA98, Metabolic Activation: NONE, Method: STANDARD PLATE.
The mark [2] stands for this setting: Test System: AMES SALMONELLA TYPHIMURIUM, Strain/Indicator: TA100, Metabolic Activation: NONE, Method: STANDARD PLATE.
Setting [3] is: Test System: AMES SALMONELLA TYPHIMURIUM, Strain/Indicator: TA1537, Metabolic Activation: NONE, Method: STANDARD PLATE.

The source made the active and inactive calls. No rule for the calls is given here.

`[Cl][Fe]([Cl])[Cl]`: the mutagenic call by setting is: (Test System: AMES SALMONELLA TYPHIMURIUM, Strain/Indicator: TA98, Metabolic Activation: HAMSTER, LIVER, S-9, AROCLOR 1254, Method: STANDARD PLATE) “inactive; negative”; (Test System: AMES SALMONELLA TYPHIMURIUM, Strain/Indicator: TA98, Metabolic Activation: NONE, Method: PREINCUBATION) “inactive; negative”; under setting [1], “inactive; negative”; (Test System: AMES SALMONELLA TYPHIMURIUM, Strain/Indicator: TA98, Metabolic Activation: RAT, LIVER, S-9, AROCLOR 1254, Method: STANDARD PLATE) “inactive; negative”; (Test System: AMES SALMONELLA TYPHIMURIUM, Strain/Indicator: TA98, Metabolic Activation: RAT, LIVER, S-9, KC 500, Method: PREINCUBATION) “inactive; negative”; (Test System: AMES SALMONELLA TYPHIMURIUM, Strain/Indicator: TA100, Metabolic Activation: HAMSTER, LIVER, S-9, AROCLOR 1254, Method: STANDARD PLATE) “inactive; negative”. The mutagenic call was “inactive; negative” (Test System: AMES SALMONELLA TYPHIMURIUM, Strain/Indicator: TA100, Metabolic Activation: NONE, Method: PREINCUBATION); “inactive; negative” under setting [2]; “inactive; negative” (Test System: AMES SALMONELLA TYPHIMURIUM, Strain/Indicator: TA100, Metabolic Activation: RAT, LIVER, S-9, AROCLOR 1254, Method: STANDARD PLATE); “inactive; negative” (Test System: AMES SALMONELLA TYPHIMURIUM, Strain/Indicator: TA100, Metabolic Activation: RAT, LIVER, S-9, KC 500, Method: PREINCUBATION); “inactive; negative” (Test System: AMES SALMONELLA TYPHIMURIUM, Strain/Indicator: TA1535, Metabolic Activation: HAMSTER, LIVER, S-9, AROCLOR 1254, Method: STANDARD PLATE); “inactive; negative” (Test System: AMES SALMONELLA TYPHIMURIUM, Strain/Indicator: TA1535, Metabolic Activation: NONE, Method: PREINCUBATION). The mutagenic call is “inactive; negative” (Test System: AMES SALMONELLA TYPHIMURIUM, Strain/Indicator: TA1535, Metabolic Activation: NONE, Method: STANDARD PLATE); “inactive; negative” (Test System: AMES SALMONELLA TYPHIMURIUM, Strain/Indicator: TA1535, Metabolic Activation: RAT, LIVER, S-9, AROCLOR 1254, Method: STANDARD PLATE); “inactive; negative” (Test System: AMES SALMONELLA TYPHIMURIUM, Strain/Indicator: TA1535, Metabolic Activation: RAT, LIVER, S-9, KC 500, Method: PREINCUBATION); “inactive; negative” (Test System: AMES SALMONELLA TYPHIMURIUM, Strain/Indicator: TA1537, Metabolic Activation: HAMSTER, LIVER, S-9, AROCLOR 1254, Method: STANDARD PLATE); “inactive; negative” (Test System: AMES SALMONELLA TYPHIMURIUM, Strain/Indicator: TA1537, Metabolic Activation: NONE, Method: PREINCUBATION); “inactive; negative” under setting [3]. Besides, the mutagenic call was “inactive; negative” (Test System: AMES SALMONELLA TYPHIMURIUM, Strain/Indicator: TA1537, Metabolic Activation: RAT, LIVER, S-9, AROCLOR 1254, Method: STANDARD PLATE); “inactive; negative” (Test System: AMES SALMONELLA TYPHIMURIUM, Strain/Indicator: TA1537, Metabolic Activation: RAT, LIVER, S-9, KC 500, Method: PREINCUBATION); “inactive; negative” (Test System: AMES SALMONELLA TYPHIMURIUM, Strain/Indicator: TA1538, Metabolic Activation: HAMSTER, LIVER, S-9, AROCLOR 1254, Method: STANDARD PLATE); “inactive; negative” (Test System: AMES SALMONELLA TYPHIMURIUM, Strain/Indicator: TA1538, Metabolic Activation: NONE, Method: PREINCUBATION); “inactive; negative” (Test System: AMES SALMONELLA TYPHIMURIUM, Strain/Indicator: TA1538, Metabolic Activation: NONE, Method: STANDARD PLATE); “inactive; negative” (Test System: AMES SALMONELLA TYPHIMURIUM, Strain/Indicator: TA1538, Metabolic Activation: RAT, LIVER, S-9, AROCLOR 1254, Method: STANDARD PLATE). Moreover, the mutagenic call reads like this: (Test System: AMES SALMONELLA TYPHIMURIUM, Strain/Indicator: TA1538, Metabolic Activation: RAT, LIVER, S-9, KC 500, Method: PREINCUBATION) “inactive; negative”; (Test System: E. COLI, Strain/Indicator: WP2 UVRA, Metabolic Activation: NONE, Method: PREINCUBATION) “inactive; negative”; (Test System: E. COLI, Strain/Indicator: WP2 UVRA, Metabolic Activation: RAT, LIVER, S-9, KC 500, Method: PREINCUBATION) “inactive; negative”; (Test System: MOUSE LYMPHOMA, Strain/Indicator: L5178Y (TK+/TK-), Metabolic Activation: NONE, Method: SUSPENSION/PLATE) “inactive; negative”; (Test System: MOUSE LYMPHOMA, Strain/Indicator: L5178Y (TK+/TK-), Metabolic Activation: RAT, LIVER, S-9, AROCLOR 1254, Method: SUSPENSION/PLATE) “active; positive”.
Consider `c1cnc2c3c(ccc2c1)CC[C@H]1O[C@@H]31`, for which, under setting [2], the mutagenic call was “active; positive”.
With `CN1C(=O)[C@]23CC4=CC=C[C@H](O)[C@H]4N2C(=O)[C@@]1(CO)SS3`, the mutagenic call runs as follows: under setting [1], “inactive; negative”; (Test System: AMES SALMONELLA TYPHIMURIUM, Strain/Indicator: TA98, Metabolic Activation: RAT LIVER S-9 MIX, Method: STANDARD PLATE) “inactive; negative”; (Test System: AMES SALMONELLA TYPHIMURIUM, Strain/Indicator: TA98, Metabolic Activation: S-9, Method: STANDARD PLATE) “inactive; negative”; under setting [2], “inactive; negative”; (Test System: AMES SALMONELLA TYPHIMURIUM, Strain/Indicator: TA100, Metabolic Activation: RAT LIVER S-9 MIX, Method: STANDARD PLATE) “inactive; negative”; (Test System: AMES SALMONELLA TYPHIMURIUM, Strain/Indicator: TA100, Metabolic Activation: S-9, Method: STANDARD PLATE) “inactive; negative”. The mutagenic call runs as follows: (Test System: AMES SALMONELLA TYPHIMURIUM, Strain/Indicator: TA102, Metabolic Activation: NONE, Method: STANDARD PLATE) “inactive; negative”; (Test System: AMES SALMONELLA TYPHIMURIUM, Strain/Indicator: TA102, Metabolic Activation: RAT LIVER S-9 MIX, Method: STANDARD PLATE) “inactive; negative”; under setting [3], “inactive; negative”; (Test System: AMES SALMONELLA TYPHIMURIUM, Strain/Indicator: TA1537, Metabolic Activation: S-9, Method: STANDARD PLATE) “inactive; negative”.
Take `CN1CC[C@H](c2c(O)cc(O)c3c(=O)cc(-c4ccccc4Cl)oc23)[C@H](O)C1`: the mutagenic call was “inactive; negative” (Test System: Mouse lymphoma, Strain/Indicator: L5178Y (tk+/tk-), Metabolic Activation: None, Method: Suspension/plate) and “active; inconclusive (previous evaluation positive)” (Test System: Mouse lymphoma, Strain/Indicator: L5178Y (tk+/tk-), Metabolic Activation: Rat, Liver, S-9, Aroclor 1254, Method: Suspension/plate).

For the origin of these results see PubChem BioAssay AID1259407 (Chemical Carcinogenesis Research Information System (CCRIS), 2018).
